Activity calls are given as the source filed them.
Tests used:
[1] = target: T1, Cytochrome P450 3A4 (Homo sapiens, UniProt P08684);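 note: CYP3A4 tested as one member of a cytochrome P450 panel screen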
[2] = test system: H4; assay: Luminescence Cell-Based Dose Response HTS to Identify Activators of 5'UTR Stem-Loop Driven Prion Protein mRNA Translation in H4 Neuroglioblastoma Cells. [Related pubchem assays: 1829 (Project Summary), 1814 (Primary HTS)]; format: functional; conditions: Homo sapiens
[3] = Luminescence Cell-Based Dose Confirmation HTS to Identify Activators of 5'UTR Stem-Loop Driven Alpha-Synuclein mRNA Translation in H4 Neuroglioblastoma Cells. [Related pubchem assays: 1829 (Project Summary), 1814 (Primary HTS)]; format: functional
[4] = target: Mitogen-activated protein kinase 10 (Homo sapiens, UniProt P53779); assay: Dose response biochemical screening assay for inhibitors of c-Jun N-Terminal Kinase 3 (JNK3). [Related pubchem assays: 746 ]
Sequence of Mitogen-activated protein kinase 10 (P53779 whole entry): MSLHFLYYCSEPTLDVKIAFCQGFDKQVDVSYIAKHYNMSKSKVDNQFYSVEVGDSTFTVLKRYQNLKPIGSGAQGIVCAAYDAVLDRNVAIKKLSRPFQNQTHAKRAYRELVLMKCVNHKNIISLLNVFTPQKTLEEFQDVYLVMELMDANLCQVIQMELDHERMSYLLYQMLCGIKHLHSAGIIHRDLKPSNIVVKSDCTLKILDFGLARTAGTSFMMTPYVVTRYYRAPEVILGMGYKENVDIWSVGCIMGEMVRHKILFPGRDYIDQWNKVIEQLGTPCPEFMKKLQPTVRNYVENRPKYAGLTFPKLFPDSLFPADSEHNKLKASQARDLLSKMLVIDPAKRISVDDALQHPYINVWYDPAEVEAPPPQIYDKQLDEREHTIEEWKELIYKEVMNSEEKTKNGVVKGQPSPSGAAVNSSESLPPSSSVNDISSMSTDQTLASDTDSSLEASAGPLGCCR

[5] = Luminescence Cell-Based Dose Response HTS to Identify Activators of Luciferase Translation or Activity in H4 […] Cells. [Related pubchem assays: 1829 (Project Summary), 1814 (Primary HTS)]; format: functional
[6] = fluconazole-exposed Candida albicans growth modulators – fluorescence, retest, confirmation (AID 2467); format: functional, cell-based
[7] = NIH-3T3 fibroblast cytotoxicity, dose response, cytotoxicity control, cell-based, fluorescence, Alamar Blue, secondary assay (AID 2327); format: functional;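 note: NIH-3T3 mouse fibroblasts cultured with fluconazole at 8 µg/mL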
[8] = target: T2, Oxysterols receptor LXR-beta (Homo sapiens, UniProt P55055); format: functional, cell-based;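 note: Cell-based luminescence dose-response assay of agonist activity at LXR, run as a confirmatory counterscreen to a daf-12 agonist screen; HEK293 cells with Gal4-LXR fusion and GAL4-driven luciferase reporter; agonist potency from rising luciferase signal of a Gal4-LXR reporter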
T2 sequence (P55055 whole entry): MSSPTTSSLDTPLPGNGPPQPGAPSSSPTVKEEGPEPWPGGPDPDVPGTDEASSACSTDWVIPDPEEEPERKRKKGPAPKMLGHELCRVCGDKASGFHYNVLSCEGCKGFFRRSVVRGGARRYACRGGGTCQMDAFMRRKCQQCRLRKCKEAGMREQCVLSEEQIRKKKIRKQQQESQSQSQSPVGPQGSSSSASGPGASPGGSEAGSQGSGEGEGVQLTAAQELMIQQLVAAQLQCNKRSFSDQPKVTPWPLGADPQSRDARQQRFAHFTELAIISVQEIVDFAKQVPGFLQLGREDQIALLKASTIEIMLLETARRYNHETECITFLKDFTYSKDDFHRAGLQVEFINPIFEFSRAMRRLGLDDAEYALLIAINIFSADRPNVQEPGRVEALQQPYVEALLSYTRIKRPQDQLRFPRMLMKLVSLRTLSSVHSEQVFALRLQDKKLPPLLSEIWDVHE

[9] = target: Induced myeloid leukemia cell differentiation protein Mcl-1 (Homo sapiens, UniProt Q07820); format: functional
Sequence of Induced myeloid leukemia cell differentiation protein Mcl-1 (Q07820 whole entry): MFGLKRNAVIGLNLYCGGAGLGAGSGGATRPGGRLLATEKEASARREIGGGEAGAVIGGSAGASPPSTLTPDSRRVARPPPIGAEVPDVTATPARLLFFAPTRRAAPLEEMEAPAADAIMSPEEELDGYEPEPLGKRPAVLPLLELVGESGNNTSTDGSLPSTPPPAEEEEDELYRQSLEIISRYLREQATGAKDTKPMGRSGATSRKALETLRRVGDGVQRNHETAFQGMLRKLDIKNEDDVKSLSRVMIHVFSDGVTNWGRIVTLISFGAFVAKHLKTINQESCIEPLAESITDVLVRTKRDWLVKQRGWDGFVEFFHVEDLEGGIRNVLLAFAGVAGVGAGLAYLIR

[10] = cells
[11] = target: T3, Mannose-6-phosphate isomerase (Homo sapiens, UniProt P34949); assay: MPI inhibition at elevated mannose 6-phosphate – biochemical, fluorescence intensity, high mannose 6-phosphate, primary screen (AID 1220)
T3 sequence (P34949 whole entry): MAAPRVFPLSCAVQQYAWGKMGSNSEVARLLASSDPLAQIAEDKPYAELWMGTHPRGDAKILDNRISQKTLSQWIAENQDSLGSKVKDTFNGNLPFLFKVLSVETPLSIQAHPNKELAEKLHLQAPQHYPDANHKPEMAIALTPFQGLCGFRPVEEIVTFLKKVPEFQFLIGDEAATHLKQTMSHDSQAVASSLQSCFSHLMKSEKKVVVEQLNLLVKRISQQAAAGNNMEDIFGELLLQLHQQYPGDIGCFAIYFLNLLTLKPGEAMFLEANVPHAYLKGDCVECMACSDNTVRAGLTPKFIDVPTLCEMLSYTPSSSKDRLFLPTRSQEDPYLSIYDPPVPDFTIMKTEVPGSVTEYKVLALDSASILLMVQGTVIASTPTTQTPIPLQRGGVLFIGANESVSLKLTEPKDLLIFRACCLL

[12] = target: T1, Cytochrome P450 3A4; remark: listed apart in the source
[13] = target: Cytochrome P450 2D6 (Homo sapiens, UniProt P10635);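 note: CYP2D6 member of a cytochrome P450 panel assay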
Sequence of Cytochrome P450 2D6 (P10635 whole entry, the tested form may be a part): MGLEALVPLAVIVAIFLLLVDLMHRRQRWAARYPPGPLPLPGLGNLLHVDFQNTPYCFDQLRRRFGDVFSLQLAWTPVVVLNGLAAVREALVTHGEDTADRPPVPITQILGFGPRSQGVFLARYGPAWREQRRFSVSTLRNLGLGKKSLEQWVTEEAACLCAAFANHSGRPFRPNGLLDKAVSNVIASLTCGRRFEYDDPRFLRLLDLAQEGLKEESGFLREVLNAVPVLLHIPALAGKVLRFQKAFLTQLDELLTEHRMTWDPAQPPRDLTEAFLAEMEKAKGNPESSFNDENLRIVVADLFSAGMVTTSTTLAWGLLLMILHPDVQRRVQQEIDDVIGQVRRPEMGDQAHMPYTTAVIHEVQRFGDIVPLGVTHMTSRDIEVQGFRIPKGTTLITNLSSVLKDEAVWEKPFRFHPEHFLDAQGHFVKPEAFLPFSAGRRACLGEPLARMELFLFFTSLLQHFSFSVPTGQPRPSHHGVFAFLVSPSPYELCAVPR

[14] = HIV-1 AD8 envelope cell-cell fusion blockers – cherry-pick, dose response (AID 652062); format: functional, cell-based;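 note: luciferase signal from cell-cell fusion driven by HIV-1 clade B AD8 Env; potency is for inhibitors of fusion seen as a drop in luminescence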
[15] = off-target signal loss in HeLa-CEM21 co-culture – HeLa F-luc CTL cells, cherry-picked, counter-screen for HIV-1 Env fusion inhibitor project, dose response (AID 652040); format: functional, cell-based;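 note: potency for signal decrease marking cytotoxic or nonspecific inhibition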
[16] = viability loss in CEM21 cells – cell-based, CellTiter-Glo luminescence, cherry-picked, cytotoxicity control for viral fusion inhibitor project, dose response (AID 652042); format: functional;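 note: potency for signal decrease meaning cytotoxicity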
[17] = blockers of HIV-1 ZM109 envelope-driven cell-cell fusion – HeLa effector, CEM target cells, luciferase, cherry-pick, dose response (AID 652058); format: functional, cell-based;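 note: luciferase signal from HIV-1 Env mediated cell-cell fusion of effector and target cells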
[18] = test system: HEK293; assay: EBV LMP1 TES2 canonical NF-kB signalling blockers – cell-based, HEK293, luciferase, cherry-pick, dose response (AID 588343); format: functional; conditions: Homo sapiens
[19] = blockers of HIV-1 envelope-mediated cell-cell fusion – cherry-pick, dose response (AID 652057); format: functional, cell-based
[20] = Vero E6 cell cytotoxicity, dose response, cytotoxicity control for non-replicating M. tuberculosis project, secondary assay (AID 492998); format: functional, VeroE6; conditions: Vero C1008
[21] = cells; format: functional
[22] = THP-1 cell cytotoxicity, dose response, cytotoxicity control for non-replicating M. tuberculosis project (AID 489025); format: functional
[23] = target: T4, High affinity choline transporter 1 (Homo sapiens, UniProt Q9GZV3); assay: human choline transporter blockers, potency – cell-based, 5-point CRC, membrane potential dye, dose response (AID 504840); format: functional
T4 sequence (Q9GZV3 whole entry): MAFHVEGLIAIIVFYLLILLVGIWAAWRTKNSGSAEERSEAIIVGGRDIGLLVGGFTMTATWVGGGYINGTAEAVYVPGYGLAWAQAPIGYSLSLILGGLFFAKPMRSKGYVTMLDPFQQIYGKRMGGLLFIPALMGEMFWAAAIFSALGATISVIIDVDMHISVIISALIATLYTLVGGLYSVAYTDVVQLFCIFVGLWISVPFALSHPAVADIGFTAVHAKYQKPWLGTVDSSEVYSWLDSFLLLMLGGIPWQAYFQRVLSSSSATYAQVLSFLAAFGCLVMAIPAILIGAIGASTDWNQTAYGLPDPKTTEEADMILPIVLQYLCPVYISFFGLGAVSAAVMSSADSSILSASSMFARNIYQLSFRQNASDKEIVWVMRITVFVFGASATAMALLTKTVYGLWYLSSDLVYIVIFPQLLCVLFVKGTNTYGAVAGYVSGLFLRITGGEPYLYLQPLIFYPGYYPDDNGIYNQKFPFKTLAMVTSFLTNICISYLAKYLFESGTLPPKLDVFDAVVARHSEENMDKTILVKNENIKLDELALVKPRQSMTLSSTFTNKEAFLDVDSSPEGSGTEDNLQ

[24] = microbe, parasite or virus in culture; format: functional; conditions: Mycobacterium tuberculosis
[25] = test system: HeLa; assay: ATP-based viability loss in HeLa cells – cell-based, CellTiter-Glo luminescence, cherry-pick samples, cytotoxicity control for MITF activator project, dose response (AID 540259); format: functional; conditions: Homo sapiens
[26] = alpha-synuclein stem-loop luciferase translation blockers – H4 neuroglioma cells, luminescence, confirmation (AID 1988); format: functional, cell-based
[27] = blockade of melanocortin 4 receptor signaling – cell-based, plate reader, cherry pick, counter-screen for LGR2 antagonist project, dose response (AID 743444); format: functional;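 note: transfected HEK 293 cells stimulated with alpha-MSH peptide; potency of inhibitors of the alpha-MSH evoked signal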
[28] = luciferase reporter signal suppression in cells – H4 neuroglioma cells, luminescence, dose response (AID 1990); format: functional, cell-based
[29] = blockers of bursicon-stimulated LGR2 cAMP reporter – cell-based, HEK293, CRE-luciferase reporter, cherry pick, set 2, dose response (AID 743343); format: functional;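 note: transfected cells were stimulated with diluted bursicon conditioned medium after compound addition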
[30] = Luminescence Cell-Based Dose Response HTS to Identify Inhibitors of 5'UTR Stem-Loop Driven Prion Protein mRNA Translation in H4 Neuroglioblastoma Cells. [Related pubchem assays: 1827 (Project Summary), 1813 (Primary HTS)]; format: functional
[31] = test system: Escherichia coli; assay: microbe, parasite or virus in culture
[32] = target: Cytochrome P450 2C19 (Homo sapiens, UniProt P33261); assay: Cytochrome panel assay with activity outcomes. Panel member name: p450-cyp2c19 Compounds with AC50 equal or less than 10 uM are considered active; format: functional
Sequence of Cytochrome P450 2C19 (P33261 whole entry): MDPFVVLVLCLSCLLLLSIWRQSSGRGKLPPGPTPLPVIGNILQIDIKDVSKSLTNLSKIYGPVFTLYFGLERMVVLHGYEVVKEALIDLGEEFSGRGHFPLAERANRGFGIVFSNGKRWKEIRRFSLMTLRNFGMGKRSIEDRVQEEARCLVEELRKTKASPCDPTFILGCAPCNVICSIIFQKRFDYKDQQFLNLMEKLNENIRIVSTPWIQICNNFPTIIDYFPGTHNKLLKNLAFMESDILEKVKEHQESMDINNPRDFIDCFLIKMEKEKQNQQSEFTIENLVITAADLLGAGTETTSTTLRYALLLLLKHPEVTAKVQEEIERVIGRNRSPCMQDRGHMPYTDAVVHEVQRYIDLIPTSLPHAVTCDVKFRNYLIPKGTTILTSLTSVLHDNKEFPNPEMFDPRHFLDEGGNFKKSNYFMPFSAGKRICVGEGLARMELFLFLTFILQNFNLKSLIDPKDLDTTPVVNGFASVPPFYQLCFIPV

[33] = target: Cytochrome P450 2C9 (Homo sapiens, UniProt P11712)
Sequence of Cytochrome P450 2C9 (P11712 whole entry): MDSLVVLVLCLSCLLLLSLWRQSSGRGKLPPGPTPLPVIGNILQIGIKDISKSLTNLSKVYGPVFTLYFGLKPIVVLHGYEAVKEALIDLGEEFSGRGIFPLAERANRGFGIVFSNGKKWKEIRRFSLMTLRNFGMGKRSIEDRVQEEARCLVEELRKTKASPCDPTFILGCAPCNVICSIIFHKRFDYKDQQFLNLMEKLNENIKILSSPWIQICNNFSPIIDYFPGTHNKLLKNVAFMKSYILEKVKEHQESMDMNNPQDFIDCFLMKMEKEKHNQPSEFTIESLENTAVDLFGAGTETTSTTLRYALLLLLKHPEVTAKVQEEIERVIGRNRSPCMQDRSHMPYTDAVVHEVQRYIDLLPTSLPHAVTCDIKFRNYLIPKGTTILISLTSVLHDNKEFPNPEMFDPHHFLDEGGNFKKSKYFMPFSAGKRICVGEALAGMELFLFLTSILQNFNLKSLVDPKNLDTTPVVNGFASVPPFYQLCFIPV

[34] = target: Glucose-6-phosphate 1-dehydrogenase (Homo sapiens, UniProt P11413); assay: inhibition of Homo sapiens G6PD, dose series – biochemical, fluorescence, selectivity assay for P. falciparum G6PD inhibitor project, dose response (AID 504792); format: functional
Sequence of Glucose-6-phosphate 1-dehydrogenase (P11413 whole entry): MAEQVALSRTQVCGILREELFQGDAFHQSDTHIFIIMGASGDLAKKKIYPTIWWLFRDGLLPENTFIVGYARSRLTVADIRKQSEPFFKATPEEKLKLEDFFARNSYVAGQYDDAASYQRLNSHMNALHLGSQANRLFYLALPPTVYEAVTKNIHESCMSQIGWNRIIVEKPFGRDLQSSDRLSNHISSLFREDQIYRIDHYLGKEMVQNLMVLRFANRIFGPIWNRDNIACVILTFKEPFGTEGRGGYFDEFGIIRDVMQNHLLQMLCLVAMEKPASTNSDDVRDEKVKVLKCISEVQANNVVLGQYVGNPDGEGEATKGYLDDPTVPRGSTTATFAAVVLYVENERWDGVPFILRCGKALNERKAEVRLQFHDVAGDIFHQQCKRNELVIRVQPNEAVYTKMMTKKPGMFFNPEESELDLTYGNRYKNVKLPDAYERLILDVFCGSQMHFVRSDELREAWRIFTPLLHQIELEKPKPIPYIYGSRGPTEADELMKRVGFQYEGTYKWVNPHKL

[35] = target: Luciferin 4-monooxygenase (Photinus pyralis, UniProt P08659); assay: inhibition of purified Photinus pyralis luciferase – biochemical, luminescence, dose response (AID 1891)
Sequence of Luciferin 4-monooxygenase (P08659 whole entry): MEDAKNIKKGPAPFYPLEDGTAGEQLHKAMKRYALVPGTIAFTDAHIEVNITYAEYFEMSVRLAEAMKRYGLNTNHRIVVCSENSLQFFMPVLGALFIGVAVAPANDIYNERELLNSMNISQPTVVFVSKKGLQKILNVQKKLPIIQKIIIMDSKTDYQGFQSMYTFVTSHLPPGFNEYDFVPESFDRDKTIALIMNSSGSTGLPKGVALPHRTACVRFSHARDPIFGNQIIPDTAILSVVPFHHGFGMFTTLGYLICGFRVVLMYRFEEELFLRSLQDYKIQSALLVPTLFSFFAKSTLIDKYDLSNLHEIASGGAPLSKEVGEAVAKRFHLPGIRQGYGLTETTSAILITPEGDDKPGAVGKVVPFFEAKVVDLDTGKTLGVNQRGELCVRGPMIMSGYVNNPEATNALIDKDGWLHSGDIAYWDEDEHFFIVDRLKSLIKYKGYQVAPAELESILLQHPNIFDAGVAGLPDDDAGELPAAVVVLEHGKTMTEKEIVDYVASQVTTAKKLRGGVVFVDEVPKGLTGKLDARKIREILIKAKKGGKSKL

[36] = Luminescence Cell-Based Dose Confirmation HTS to Identify Inhibitors of Platelet Dense Granule Release. [Related pubchem assays: 1663 (Primary HTS), 1678 (Summary of Project)]; format: functional
[37] = test system: Streptococcus sp. 'group A'; assay: Streptococcus pyogenes SK(-)GAS viability under kanamycin – luminescence, BacTiterGlo, confirmation, counter-screen for streptokinase expression inhibitor project, dose response (AID 1900); format: functional, organism-based
[38] = test system: Streptococcus; assay: GAS UMAA2166 growth inhibition – luminescence, BacTiterGlo, counter-screen for streptokinase expression inhibitor project, dose response (AID 1915); format: functional, organism-based;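 note: potency for reduction of bacterial viability or growth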

T1 sequence (P08684 whole entry): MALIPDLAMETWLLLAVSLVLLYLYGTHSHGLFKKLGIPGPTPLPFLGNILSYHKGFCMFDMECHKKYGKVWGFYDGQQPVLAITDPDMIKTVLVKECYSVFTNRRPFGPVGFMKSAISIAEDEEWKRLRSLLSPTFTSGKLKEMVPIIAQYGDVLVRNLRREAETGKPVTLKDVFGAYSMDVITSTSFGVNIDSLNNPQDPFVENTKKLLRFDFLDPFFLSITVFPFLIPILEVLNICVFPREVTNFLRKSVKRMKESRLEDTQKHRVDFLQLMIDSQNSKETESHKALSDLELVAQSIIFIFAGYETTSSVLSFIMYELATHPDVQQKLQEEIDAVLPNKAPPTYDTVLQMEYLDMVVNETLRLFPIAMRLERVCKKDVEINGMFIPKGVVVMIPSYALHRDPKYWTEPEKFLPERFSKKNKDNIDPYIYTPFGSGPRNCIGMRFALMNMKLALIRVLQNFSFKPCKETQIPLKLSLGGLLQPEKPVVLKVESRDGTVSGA

CN1[C@@H]2CC[C@H]1CC(NC(=O)c1nn(C)c3ccccc13)C2 (stereo partly drawn)
AC50 [1]: inconclusive

Cc1nn(-c2ccccc2)c2c1C(O)n1c(nc3ccccc31)S2 (stereo not drawn)
EC50 [2]: > 120 µM (not active)
EC50 [3]: > 120 µM (not active)
IC50 [4]: > 93.1 µM (not active)
EC50 [5]: > 120 µM (not active)

COc1cc(CC(=O)Nc2nccs2)cc(OC)c1OC
EC50 [6]: > 38 µM (not active)
IC50 [4]: > 93.1 µM (not active)
EC50 [7]: > 160 µM (inactive)

Cc1ccc(-n2nc3cc(C)c(N)cc3n2)cc1
EC50 [8]: > 67.5 µM (inactive)
IC50 [9]: 7.02 µM (active)
EC50 [10]: > 67.5 µM (inactive)
IC50 [11]: > 50 µM (not active)

O=C1CCCCCC1C1(O)C(=O)Nc2ccc(Br)cc21 (stereo not drawn)
AC50 [12]: 17.8 µM (inconclusive)
AC50 [13]: inconclusive

COc1cccc(-c2nnc3sc(C4CCCCC4)nn23)c1
AC50 [14]: 3.09 µM (active)
AC50 [15]: 3.63 µM (active)
AC50 [16]: 30 µM (active)
AC50 [17]: 5.07 µM (active)
AC50 [18]: 17 µM (active)
AC50 [19]: 4.26 µM (active)

O=C(Nc1cc(C(F)(F)F)ccc1-n1cncn1)c1ccc([N+](=O)[O-])o1
CC50 [20]: 8.89 µM (active)
IC50 [21]: 19.8 µM (active)
CC50 [22]: 37.3 µM (active)
IC50 [23]: 11 µM (active)
CC50 [24]: 6.96 µM (active)

O=C(Oc1ccccc1)N1CCC2(CC1)CCN(c1ncccn1)CC2
AC50 [1]: inconclusive

COc1ccc(C(=O)Nc2ccc3c4c(cccc24)CC3)cc1
AC50 [25]: 73.4 µM (active)

CCOC(=O)c1cn2nc(N3CCCC3)ccc2n1
EC50 [26]: 5.55 µM (active)
AC50 [27]: 5.54 µM (active)
EC50 [28]: 8.17 µM (inconclusive)
AC50 [29]: 5.94 µM (active)
EC50 [30]: 2.56 µM (active)
AC50 [18]: 3.17 µM (active)

O=C(c1ccccc1)N1CCN(c2nc3ccc([N+](=O)[O-])cc3s2)CC1
AC50 [31]: 28.7 µM (active)

COc1ccc(/C=C2\N=C(C)OC2=O)cc1[N+](=O)[O-]
AC50 [18]: 237 µM (active)

CNC(=O)CNC(=O)Nc1ccc(C)cc1
AC50 [31]: 29.8 µM (active)

CCCN1CCN(C(=O)CN2C(=O)CC(C)(C)S(=O)(=O)c3ccccc32)CC1
AC50 [32]: inconclusive
AC50 [12]: 12.6 µM (inconclusive)
AC50 [13]: inconclusive

COC(=O)c1ccccc1NC(=O)c1c(Br)cnn1C
AC50 [33]: inconclusive
AC50 [1]: inconclusive

COc1cc2c(C)nc3c(cnn3-c3ccccc3)c2cc1OC
AC50 [25]: 86.7 µM (active)

CC(C)(C)NC(=O)COc1ccc(CNc2ccc3[nH]c(O)nc3c2)cc1
IC50 [34]: 64.6 µM (inactive)
EC50 [35]: > 112 µM (not active)
EC50 [36]: 17.9 µM (active)
IC50 [11]: > 50 µM (not active)

CN1CCN(c2cc3c(cc2F)c(=O)c(C(=O)O)cn3CCF)CC1
IC50 [21]: 3.08 µM (active)
AC50 [31]: 2.57 µM (active)
EC50 [37]: 5.58 µM (active)
EC50 [38]: 7.64 µM (active)

CCc1ccc(/C=N/NC(=O)c2ccccn2)cc1
IC50 [21]: 5.9 µM (active)
AC50 [18]: 3.11 µM (active)

O=C1C(/C=N/c2ccccc2O)=C(O)c2ccccc21
EC50 [8]: > 67.5 µM (inactive)
IC50 [4]: 23.1 µM (not active)
EC50 [10]: > 67.5 µM (inactive)

COc1ccc(/N=C2\SC(C(=O)O)CC(=O)N2Cc2ccc(OC)c(OC)c2)cc1 (stereo not drawn)
AC50 [31]: 86.2 µM (active)

O=C(CNc1cccc2ccccc12)N/N=C/C=C/c1ccco1
IC50 [11]: > 50 µM (not active)

O=C(Nc1ccccn1)c1ccccc1
AC50 [25]: 83.2 µM (active)

From ChEMBL document CHEMBL1201862, “PubChem BioAssay data set” (2004)
